Test results published in patent US20110293745A1, “AURORA KINASE INHIBITORS” (SUNESIS PHARMACEUTICALS, INC., priority 2008, published 2011).

Columns and labels:
[1] = biological target: T1, c-Raf (Homo sapiens, UniProt P04049); assay: Radiometric kinase assay (Upstate panel); format: biochemical
T1 construct: purchased Upstate Biotechnology, Dundee, UK

[2] = tested on: PC3; assay: cells; settings: Homo sapiens, PC-3, 96 h, read-out: BrdU IC50
Method: (§1) Cellular proliferation was assessed using the Cell Proliferation ELISA, bromodeoxyuridine (BrdU) kit (Roche) including reagents, according to the kit protocol.

[3] = tested on: H1299; assay: cells; settings: Homo sapiens, NCI-H1299, 96 h, read-out: BrdU IC50
Method: as §1

[4] = tested on: Calu-6; assay: cells; settings: Homo sapiens, Calu-6, 96 h, read-out: BrdU IC50
Method: as §1

[5] = tested on: A375; assay: cells; settings: Homo sapiens, A-375, 96 h, read-out: BrdU IC50
Method: as §1

[6] = tested on: MDA-MB-231; assay: cells; settings: Homo sapiens, MDA-MB-231, 96 h, read-out: BrdU IC50
Method: as §1

[7] = tested on: HeLa; assay: cells; settings: Homo sapiens, 96 h, read-out: BrdU IC50
Method: as §1

[8] = tested on: HCT116; assay: cells; settings: Homo sapiens, HCT-116, 96 h, read-out: BrdU IC50
Method: as §1

[9] = tested on: A2780; assay: cells; settings: Homo sapiens, A2780, 96 h, read-out: BrdU IC50
Method: as §1

[10] = tested on: histone H3 phosphorylation in skin biopsies; assay: Clinical pharmacodynamics, skin punch biopsies; format: in vivo, human; settings: Cycle 1, Day 1, 3-7 hours after start of infusion
Method: Clinical pharmacodynamic assessments were performed as follows. Skin punch biopsy samples were collected prior to (e.g., just prior to or up to 14 days prior to) treatment and during Cycle 1, Day 1 of treatment at between 3 and 7 hours after the start of the 3-hour infusion. Skin punch biopsy samples were analyzed for inhibition of histone H3 phosphorylation.

[11] = tested on: cleaved PARP in MV-4-11 xenograft tumors; assay: PARP cleavage in tumor lysates (western blotting); format: in vivo, mouse; settings: single IP dose 50 mg/kg or 100 mg/kg; 2, 6, 24 hrs
Method: (§2) PARP cleavage was measured in HCT 116 (colon carcinoma) and MV-4-11 tumor lysates by western blotting. […] HCT 116 tumors were collected 3, 6 and 12 hrs post dosing; MV-4-11 tumors were collected at 2, 6 and 24 hrs post dosing. […] Tumors were lysed in cell extraction buffer (Biosource # FNN0011) containing protease inhibitors (Sigma # P2714), and PMSF Phenylmethanesulfonyl fluoride (PMSF) [#P7626, Sigma]. Forty micrograms of protein for each sample was loaded and run on 4-12% Tris-Glycine NuPAGE gel (Invitrogen), in Novex Tris-Glycine running buffer (Invitrogen). After gel separation, proteins were electro-transferred to a PVDF membrane (Invitrogen).

[12] = tested on: cleaved PARP in HCT 116 xenograft tumors; assay: PARP cleavage in tumor lysates (western blotting); format: in vivo, mouse; settings: single IP dose 170 mg/kg
Method: as §2

[13] = tested on: PC3 prostate tumor xenograft; assay: In vivo efficacy, mouse xenograft
Method: Percent TGI is then calculated with the following equation: […]
Time To Endpoint (TTE) was calculated for each individual animal to reach the predetermined study end point where the tumor volume becomes 1200 mm^3 or 10% of body weight or a greater than 20% body weight loss for two sequential measurements. The TTE is calculated and the median value is recorded for the group. Tumor Growth Delay (TGD) is then calculated with the following equation: […]
PC3 prostate tumor fragments (1 mm^3) were implanted subcutaneously in the right hind flank of mice. After 21 days, when tumors reached a volume of approximately 120 mm^3, animals were weighed, randomized by tumor volume (l×w×h×0.52), and assigned to the various study groups before initial dosing.

[14] = tested on: panel of 219 kinases; settings: read-out: IC50 of the remaining 197 kinases
[15] = tested on: HCT 116 cells; assay: Fluorescent imaging (DNA and tubulin); format: cell-based, human; settings: 16 nM, 72 hr
Method: Cells were then fixed with 4% paraformaldehyde for 20 min at room temperature, washed with 1×PBS three times, permeabilized with 0.1% Triton® X-100 nonionic surfactant for 5 min at room temperature, washed with 1×PBS twice, blocked with 10% fetal bovine serum (FBS) in PBS for 2 hr at room temperature. The cells were incubated in a diluted alpha-tubulin primary antibody solution in 10% FBS for 2 days at 4° C., and stained with DAPI (DNA/.blue) and with a diluted FITC-labeled secondary antibody (tubulin/green) solutions in 10% FBS for 1 hr at room temperature away from light. Cells were then washed in 1×PBS and the coverslips were mounted on slides and analyzed with a […]2 fluorescence microscope with a 63× oil immersion objective. Images were captured on a […] camera and analyzed using Image-Pro software. For both images captured, the same objective was used.

[16] = tested on: histone H3 phosphorylation in femur bone marrow; assay: pHH3 immunohistochemistry in mouse bone marrow; format: in vivo; settings: for bone marrow cells positive for pHH3, times less evident than vehicle: 170 mg/kg IP BIW×3
Method: For each study, animals were randomized by tumor volume and distributed into groups of ten animals each. […] Inhibition of histone H3 (HH3) phosphorylation was evaluated in HCT 116 xenograft tumors, mouse femur bone marrow, and mouse skin punch biopsy sections by immunohistochemistry (IHC). […] The tumors were collected 6 hrs post-dose on day 4, 11, 18 and on day 25 (one week after completion of dosing phase of the experiment). Phosphorylated histone H3 (pHH3) was detected by immunohistochemistry staining of tissue sections with the antibody # 9701 (Cell Signaling Technology, Inc.), which recognizes phosphorylation of Ser10 residue in histone H3 protein.

T1 sequence (P04049 whole entry): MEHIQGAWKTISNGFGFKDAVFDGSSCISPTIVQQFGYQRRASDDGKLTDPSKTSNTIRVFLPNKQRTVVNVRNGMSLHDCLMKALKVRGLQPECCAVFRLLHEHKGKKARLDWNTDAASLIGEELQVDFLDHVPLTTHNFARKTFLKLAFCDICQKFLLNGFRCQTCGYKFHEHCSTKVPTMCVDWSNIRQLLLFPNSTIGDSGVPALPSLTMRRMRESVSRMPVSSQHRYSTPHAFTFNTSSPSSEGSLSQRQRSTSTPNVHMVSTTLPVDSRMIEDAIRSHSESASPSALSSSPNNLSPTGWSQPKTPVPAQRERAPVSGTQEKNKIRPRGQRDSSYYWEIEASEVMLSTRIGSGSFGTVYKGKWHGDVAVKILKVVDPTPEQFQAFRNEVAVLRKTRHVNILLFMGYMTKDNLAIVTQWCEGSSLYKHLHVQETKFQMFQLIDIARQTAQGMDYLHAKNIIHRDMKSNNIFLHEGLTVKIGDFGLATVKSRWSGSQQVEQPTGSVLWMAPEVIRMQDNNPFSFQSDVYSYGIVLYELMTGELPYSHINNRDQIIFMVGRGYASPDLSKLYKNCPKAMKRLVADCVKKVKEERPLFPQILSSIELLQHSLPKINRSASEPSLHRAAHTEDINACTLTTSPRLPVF

Compound `CS(=O)(=O)O.O=C(Nc1cccc(Cl)c1)Nc1ncc(CCNc2ncnc3ccsc23)s1` [Compound 1, 1-(3-chlorophenyl)-3-{5-[2-(thieno[3,2-d]pyrimidin-4-ylamino)ethyl]thiazo}-urea] has an IC50 [1] of 0.1 µM, an IC50 [2] of 4.4 nM and an IC50 [3] of 4 nM. The IC50 [4] was 13.3 nM, the IC50 [5] was 5.9 nM and the IC50 [6] was 8.1 nM. For the same compound, the IC50 [7] was 9.3 nM, the IC50 [8] was 6.4 nM and the IC50 [9] was 1.8 nM. For the same compound, the “doses at which inhibition of pHH3 was observed in skin biopsies of patients” value [10] was no less than 240 mg/m^2, the PARP cleavage [11] was “dose- and time-dependent” and the “time after dose PARP cleavage is maintained” value [12] was “at least 12 hr”. For the same compound, the “time after dose at which PARP cleavage became evident” value [12] was 3 h, the “% TGI” value ([13]; 42.5 mg/kg biw × 3) was 39.5% and the TGD ([13]; 42.5 mg/kg biw × 3) was 0 days. The “% TGI” value ([13]; 85 mg/kg biw × 3) was 63.6%, the TGD ([13]; 85 mg/kg biw × 3) was 12 days and the “% TGI” value ([13]; 170 mg/kg biw × 3) was 67.5%. The TGD ([13]; 170 mg/kg biw × 3) was 25 days, the IC50 [14] was no less than 1000 nM and the cell morphology [15] was “formation of large polyploid cells”. The “bone marrow cells positive for pHH3, times less evident than vehicle” value ([16]; day 11) was 3 times, the “bone marrow cells positive for pHH3, times less evident than vehicle” value ([16]; day 18) was 7 times and the “Histone H3 phosphorylation in bone marrow” value ([16]; day 25) was “recovered to normal levels”.
